Biological target: human AMPK (full-length γ1, β1 and α1 subunits) (Homo sapiens (Human), UniProt Q13131+Q9Y478)
Assay: AMPK in vitro biochemical assay (33P-based, SAMS peptide, PP2A dephosphorylation)
Details: for EC50: activation of phosphorylated AMPK, 33P-ATP, SAMS peptide, PP2A treatment, 4-parameter fit; for Emax / Maximum: counts as % of positive control wells (enzyme, allosteric activator or AMP, PP2A and substrate); for Emax: read-out: Maximum
Outline: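 Phosphorylated full-length α1β1γ1 AMPK (E. coli-expressed, His-purified, gel-filtered) preincubated 15 min RT with compound in HEPES pH 7.5, 10 mM MgCl2 buffer, then PP2A added to dephosphorylate pThr172.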

human AMPK (full-length γ1, β1 and α1 subunits), sequence (Q13131 whole entry): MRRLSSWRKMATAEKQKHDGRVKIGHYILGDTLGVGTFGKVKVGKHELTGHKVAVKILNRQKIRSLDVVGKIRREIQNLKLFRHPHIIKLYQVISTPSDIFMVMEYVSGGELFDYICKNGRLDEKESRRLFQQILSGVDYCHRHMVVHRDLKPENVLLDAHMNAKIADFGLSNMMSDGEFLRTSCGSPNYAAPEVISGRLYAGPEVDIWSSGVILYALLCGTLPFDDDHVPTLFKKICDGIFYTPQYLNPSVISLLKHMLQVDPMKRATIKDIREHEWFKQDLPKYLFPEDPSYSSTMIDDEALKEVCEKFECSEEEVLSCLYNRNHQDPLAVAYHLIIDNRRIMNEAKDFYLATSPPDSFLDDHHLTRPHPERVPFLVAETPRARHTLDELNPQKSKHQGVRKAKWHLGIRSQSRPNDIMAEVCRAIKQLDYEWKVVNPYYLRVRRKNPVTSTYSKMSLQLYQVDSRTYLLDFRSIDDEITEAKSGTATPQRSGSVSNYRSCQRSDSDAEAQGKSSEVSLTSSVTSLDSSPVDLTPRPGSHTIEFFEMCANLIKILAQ
human AMPK (full-length γ1, β1 and α1 subunits), sequence (Q9Y478 whole entry): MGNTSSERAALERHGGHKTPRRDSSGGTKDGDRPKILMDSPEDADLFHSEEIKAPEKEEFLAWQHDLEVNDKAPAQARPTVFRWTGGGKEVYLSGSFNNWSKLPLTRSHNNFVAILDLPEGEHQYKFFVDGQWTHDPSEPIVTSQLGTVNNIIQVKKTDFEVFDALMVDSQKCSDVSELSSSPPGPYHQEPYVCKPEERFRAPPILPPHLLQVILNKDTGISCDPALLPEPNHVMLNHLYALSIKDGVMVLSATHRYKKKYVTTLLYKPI
human AMPK (full-length γ1, β1 and α1 subunits), sequence (P54619 whole entry partner): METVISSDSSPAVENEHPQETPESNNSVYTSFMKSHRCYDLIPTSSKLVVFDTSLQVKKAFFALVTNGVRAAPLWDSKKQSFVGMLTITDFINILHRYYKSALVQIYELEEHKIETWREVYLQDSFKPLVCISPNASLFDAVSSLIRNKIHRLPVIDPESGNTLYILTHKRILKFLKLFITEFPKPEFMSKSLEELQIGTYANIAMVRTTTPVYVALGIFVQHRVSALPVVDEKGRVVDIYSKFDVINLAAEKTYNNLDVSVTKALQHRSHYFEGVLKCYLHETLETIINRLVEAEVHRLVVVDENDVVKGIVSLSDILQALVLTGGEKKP

Row | EC50 [nM] | Emax [%] | Maximum [%] | Structure (SMILES)
1 | 90.2 | 107 | – | CC(=O)N1CCC(c2ccc(-c3cc4c(C(=O)O)n[nH]c4cc3Cl)cc2)CC1 [Example 117, 5-(4-(1-Acetylpiperidin-4-yl)phenyl)-6-chloro-1H-indazole-3-carboxylic acid]
2 | 169 | 125 | – | COc1ccc(-c2cc3c(C(=O)NS(=O)(=O)c4ccccc4)n[nH]c3cc2Cl)cc1 [Example 118, 6-Chloro-5-(4-methoxyphenyl)-N-(phenylsulfonyl)-1H-indazole-3-carboxamide]
3 | 17.9 | 92 | – | O=C(O)c1c[nH]c2cc(Cl)c(-c3ccc(OCc4cccnc4)cc3)cc12 [Example 94, 6-chloro-5-[4-(pyridin-3-ylmethoxy)phenyl]-1H-indole-3-carboxylic acid]
4 | 36.9 | 107 | – | Cc1cc2[nH]cc(C(=O)O)c2cc1-c1ccc(C2(CO)CC2)cc1 [Example 27, 5-{4-[1-(hydroxymethyl)cyclopropyl]phenyl}-6-methyl-1H-indole-3-carboxylic acid]
5 | 99.2 | 99 | – | O=C(O)c1c[nH]c2cc(Cl)c(-c3ccc(OCCO)cc3F)cc12 [Example 86, 6-chloro-5-[2-fluoro-4-(2-hydroxyethoxy)phenyl]-1H-indole-3-carboxylic acid]
6 | 271 | 104 | – | O=C(O)c1c[nH]c2cc(Cl)c(-c3cnc(N4CCOCC4)nc3)cc12 [Example 76, 6-chloro-5-[2-(morpholin-4-yl)pyrimidin-5-yl]-1H-indole-3-carboxylic acid]
7 | 334 | 137 | – | COc1cc(-c2cc3c(C(=O)O)c[nH]c3cc2Cl)ccc1C(C)(C)O [Example 56, 6-chloro-5-(4-(2-hydroxypropan-2-yl)-3-methoxyphenyl)-1H-indole-3-carboxylic acid]
8 | 133 | 75 | – | COc1cc(-c2cc3c(C(=O)O)c[nH]c3cc2Cl)ccc1OCCCO [Example 59, 6-chloro-5-[4-(3-hydroxypropoxy)-3-methoxyphenyl]-1H-indole-3-carboxylic acid]
9 | 1050 | 83 | – | COc1ccc(-c2cc3c(C(=O)O)n[nH]c3cc2C)c(F)c1 [Example 98, 5-(2-Fluoro-4-methoxyphenyl)-6-methyl-1H-indazole-3-carboxylic acid]
10 | 52.4 | – | – | O=C(O)c1n[nH]c2cc(Cl)c(-c3ccc([C@H]4C[C@@H](O)C4)cc3)cc12 [Example 120, 6-Chloro-5-(4-((1S,3S)-3-hydroxycyclobutyl)phenyl)-1H-indazole-3-carboxylic acid]
11 | 118 | – | 91 | COC(=O)N1CCC(c2ccc(-c3cc4c(C(=O)O)c[nH]c4cc3Cl)cc2)C1 (single isomer, unassigned) [Example 14B, 6-chloro-5-{4-[1-(methoxycarbonyl)pyrrolidin-3-yl]phenyl}-1H-indole-3-carboxylic acid]
12 | 207 | 89 | – | O=C(O)c1c[nH]c2cc(Cl)c(-c3ccc(CC(=O)N4CCOCC4)cc3)cc12 [Example 77, 6-chloro-5-{4-[2-(morpholin-4-yl)-2-oxoethyl]phenyl}-1H-indole-3-carboxylic acid]
13 | 1080 | 98 | – | O=C(O)c1c[nH]c2cc(F)c(-c3ccc(OCCCO)cc3)c(F)c12 [Example 28, 4,6-difluoro-5-[4-(3-hydroxypropoxy)phenyl]-1H-indole-3-carboxylic acid]
14 | 69.5 | 112 | – | O=C(O)c1c[nH]c2cc(Cl)c(-c3ccc4c(c3)OC[C@@H](CO)O4)cc12 [Example 87, 6-chloro-5-[(2R)-2-(hydroxymethyl)-2,3-dihydro-1,4-benzodioxin-6-yl]-1H-indole-3-carboxylic acid]
15 | 432 | 89 | – | O=C(O)c1c[nH]c2cc(Cl)c(-c3ccc(C4CCN4)cc3)cc12 (stereo not drawn) [Example 63, 5-(4-azetidin-2-yl-phenyl)-6-chloro-1H-indole-3-carboxylic acid]
16 | 252 | 91 | – | O=C(O)c1c[nH]c2cc(F)c(-c3ccc(OCCO)cc3)c(F)c12 [Example 24, 4,6-difluoro-5-[4-(2-hydroxyethoxy)phenyl]-1H-indole-3-carboxylic acid]
17 | 372 | 120 | – | O=C(O)CCOc1ccc(-c2cc3c(C(=O)O)c[nH]c3cc2Cl)cc1 [Example 90, 5-[4-(2-carboxyethoxy)phenyl]-6-chloro-1H-indole-3-carboxylic acid]
18 | 33.3 | 74 | – | COc1cc(C2(O)CCC2)ccc1-c1cc2c(C(=O)O)c[nH]c2cc1Cl [Example 62, 6-chloro-5-[4-(1-hydroxycyclobutyl)-2-methoxyphenyl]-1H-indole-3-carboxylic acid]
19 | 32.9 | – | 69.2 | O=C(O)c1c[nH]c2cc(F)c(-c3ccc(C4CCCCO4)cc3)cc12 (single isomer, unassigned) [Example 171, 6-fluoro-5-[4-(tetrahydro-2H-pyran-2-yl)phenyl]-1H-indole-3-carboxylic acid]

Row | EC50 [nM] | Emax [%] | Maximum [%] | Structure (SMILES)
20 | 10.1 | 132 | – | CS(=O)(=O)NC(=O)c1c[nH]c2cc(Cl)c(-c3ccc(C4(O)CCC4)cc3)cc12 [Example 147, 6-chloro-5-[4-(1-hydroxycyclobutyl)phenyl]-N-(methylsulfonyl)-1H-indole-3-carboxamide]
21 | 132 | 90 | – | COC(C)c1ccc(-c2cc3c(C(=O)O)n[nH]c3cc2Cl)cc1 (stereo not drawn) [Example 125, 6-Chloro-5-(4-(1-methoxyethyl)phenyl)-1H-indazole-3-carboxylic acid]
22 | 110 | 89 | – | O=C(O)c1c[nH]c2cc(Cl)c(-c3ccc(OCCN4CCNCC4)cc3)cc12 [Example 48, 6-chloro-5-{4-[2-(piperazin-1-yl)ethoxy]phenyl}-1H-indole-3-carboxylic acid]
23 | 1.7 | 68 | – | O=C(O)c1c[nH]c2cc(Cl)c(-c3ccc(-c4ccccc4)cc3)cc12 [Example 43, 5-(biphenyl-4-yl)-6-chloro-1H-indole-3-carboxylic acid]
24 | 6.9 | 73 | – | O=C(O)c1c[nH]c2cc(Cl)c(-c3ccc(C4(O)CCC4)cc3F)cc12 [Example 13, 6-chloro-5-[2-fluoro-4-(1-hydroxycyclobutyl)phenyl]-1H-indole-3-carboxylic acid]
25 | 101 | 101 | – | COC(=O)N1CCC(c2ccc(-c3cc4c(C(=O)O)c[nH]c4cc3Cl)cc2)C1 (single isomer, unassigned) [Example 14A, 6-chloro-5-{4-[1-(methoxycarbonyl)pyrrolidin-3-yl]phenyl}-1H-indole-3-carboxylic acid]
26 | 151 | 100 | – | COC(=O)N1CCC(c2ccc(-c3cc4c(C(=O)O)c[nH]c4cc3Cl)cc2)C1 (racemic) [Example 14, 6-chloro-5-{4-[1-(methoxycarbonyl)pyrrolidin-3-yl]phenyl}-1H-indole-3-carboxylic acid]
27 | 100 | 57 | – | NC(=O)Cc1ccc(-c2cc3c(C(=O)O)n[nH]c3cc2Cl)cc1 [Example 123, 5-(4-(2-Amino-2-oxoethyl)phenyl)-6-chloro-1H-indazole-3-carboxylic acid]
28 | 4.3 | 107 | – | O=C(O)c1c[nH]c2cc(Cl)c(-c3ccc(C4(CO)CCC4)cc3)cc12 [Example 72, 6-chloro-5-{4-[1-(hydroxymethyl)cyclobutyl]phenyl}-1H-indole-3-carboxylic acid]
29 | 14 | 75 | – | O=C(O)c1c[nH]c2cc(Cl)c(-c3ccc(CCO)cc3)cc12 [Example 71, 6-chloro-5-[4-(2-hydroxyethyl)phenyl]-1H-indole-3-carboxylic acid]
30 | 50.1 | 96.1 | – | O=C(O)c1c[nH]c2cc(Cl)c(-c3ccc(OCCCC4COC4)cc3)cc12 [Example 157, 6-chloro-5-(4-(3-(oxetan-3-yl)propoxy)phenyl)-1H-indole-3-carboxylic acid]
31 | 33.7 | 79 | – | CC(C)(O)c1ccc(-c2cc3c(C(=O)O)n[nH]c3cc2Cl)cc1 [Example 102, 6-Chloro-5-(4-(2-hydroxypropan-2-yl)phenyl)-1H-indazole-3-carboxylic acid]
32 | 38.1 | 91 | – | O=C(O)c1c[nH]c2cc(Cl)c(-c3ccc(OCCCN4CCNCC4)cc3)cc12 [Example 52, 6-chloro-5-{4-[3-(piperazin-1-yl)propoxy]phenyl}-1H-indole-3-carboxylic acid]
33 | 7.1 | 70 | – | CC(C)(CO)c1ccc(-c2cc3c(C(=O)O)c[nH]c3cc2Cl)cc1 [Example 36, 6-chloro-5-[4-(1-hydroxy-2-methylpropan-2-yl)phenyl]-1H-indole-3-carboxylic acid]
34 | 82.8 | 16 | – | O=S(=O)(O)c1c[nH]c2cc(Cl)c(-c3ccc(C4CCOCC4)cc3)cc12 [Example 134, 6-Chloro-5-(4-(tetrahydro-2H-pyran-4-yl)phenyl)-1H-indole-3-sulfonic acid]
35 | – | – | 110 | O=C(O)c1n[nH]c2cc(Cl)c(-c3ccc(C4CC(O)C4)cc3)cc12 [Example 126, 6-Chloro-5-(4-((1R,3R)-3-hydroxycyclobutyl)phenyl)-1H-indazole-3-carboxylic acid]
36 | 22 | 120 | – | CN1CCN(CCCOc2ccc(-c3cc4c(C(=O)O)c[nH]c4cc3Cl)cc2)CC1 [Example 53, 6-chloro-5-{4-[3-(4-methylpiperazin-1-yl)propoxy]phenyl}-1H-indole-3-carboxylic acid]
37 | 44.3 | 110 | – | CN1CCC(c2ccc(-c3cc4c(C(=O)O)c[nH]c4cc3Cl)cc2)C1 (stereo not drawn) [Example 74, 6-chloro-5-[4-(1-methylpyrrolidin-3-yl)phenyl]-1H-indole-3-carboxylic acid]
